Consider 9 compounds from PMC11001712, “Epiberberine: a potential rumen microbial urease inhibitor to reduce ammonia release screened by targeting UreG” (Applied Microbiology and Biotechnology, 2024).

Read-outs that look alike come from different tables or passages of the source.

Data set [1] relates to UreG. The data set can be described thus: UreG GTPase activity (Malachite Green Phosphate Assay). Type of data set: biochemical, rumen microorganisms of dairy cows. Conditions: for IC50: alkaloid 0, 6.25, 12.5, 25, 50 and 100 μM, triplicate, read-out: IC50 against UreG GTPase activity.
The subject of data set [2] is urease of ruminal microbial crude protein. The data set is described as follows: Urease activity of ruminal microbial crude protein (phenol/hypochlorite). Type of data set: biochemical, rumen microorganisms. Conditions: Fig. 5A. How it is done:
Ruminal microbial crude protein was collected by ultrasonication and centrifugation following a previously established method (Zhang et al. [2020b]). The urease activity of ruminal microbial crude protein was determined based on the amount of ammonia decomposed by urea through a modified phenol/hypochlorite reaction method (Krallmann-Wenzel [1985]), in which the urease activity without alkaloid and urea was set at 0, and the urease activity without alkaloid was set at 100%. The inhibition rate of alkaloid to inhibit urease activity was calculated by the following formula: Inhibitionrate%=1-A-B/C-D×100 where A represents the absorbance value of urease activity with alkaloid, B represents the absorbance value of urease activity with alkaloid but without urea, C represents the absorbance value of urease activity without alkaloid, and D represents the absorbance value of urease activity without alkaloid and urea. Each measurement was performed in triplicate.

A further data set addresses (UniProt A0A6M3RDS9). The data set can be described thus: UreG GTPase activity (Malachite Green Phosphate Assay). In kind it is biochemical, rumen microorganisms of dairy cows. Conditions: alkaloid 0, 6.25, 12.5, 25, 50 and 100 μM; triplicate; read-out: IC50 against UreG GTPase activity.
Data set [3] deals with UreG. The data set is described as follows: Circular dichroism spectroscopy of UreG secondary structure. More on the design: species or system rumen microorganisms of dairy cows. Conditions: 233 μg/mL UreG, 88 μM alkaloid. How it is done:
The CD spectra of UreG were recorded using Chirascan Plus spectrometer (Applied Photophysics Ltd., Surrey, UK) equipped with a 1-mm quartz cell, at measurement range between 190 and 260 nm, with 1 nm data pitch and bandwidth. To reduce interference from the background solution, 233 µg/mL UreG and 88 µM alkaloid were prepared using distilled water. The final CD spectrum of UreG was obtained by subtracting the background spectrum (distilled water or alkaloid) from the sample spectrum. The secondary structure proportions (α-helix, β-sheet, β-turn, and random coil) in UreG were calculated using CDNN (v.2.1) software (Applied Photophysics Ltd., Leatherhead, UK).

For data set [4], the system named is UreG. The note with it: from trend of Km and Vmax with alkaloid concentration.
Description: The kinetics assay of UreG by alkaloid was carried out by Michaelis–Menten equation, and the values of Michaelis–Menten constants (Km and Vmax) were calculated from the Lineweaver–Burk plots through the software of GraphPad Prism. The inhibition with various concentrations of alkaloids (0, 15.6, 62.5, and 250 µM) was measured at different concentrations of GTP substrate (0, 12.5, 25, 50, 100, and 200 µM).
The target of data set [5] is UreG. The data set is described as follows: Isothermal titration calorimetry of nickel binding to UreG in presence of alkaloid. More on the design: species or system rumen microorganisms of dairy cows. The note with it: for Effect on KD value between nickel and UreG / Effect on N value (nickel: UreG): 27 μM UreG, 1500 μM NiSO4, 238 μM alkaloid. How it is done:
The inhibition mechanism of UreG by alkaloid was explored using ITC and CD spectroscopy, to reveal the effects of alkaloid on the combination of nickel towards UreG and the secondary structure of UreG. ITC measurements were carried out with an AutoITC200 microcalorimeter (GE, MA, USA) as described previously (Zhang et al. [2020a]). Briefly, 27 µM UreG was titrated with 1500 µM NiSO4 in the present of 238 µM alkaloid. The titration curve was fitted with the one-site binding model, and the final data was analyzed by ITC Analysis Module in the software of Origin 7.0 (OriginLab, MA, USA).
Background: In ITC the heat of successive injections is recorded.

The conditions of data set [6]: cited from earlier work.
For a further data set, the system named is urease. More on the design: method as in Tan et al. [2017]. Conditions: ref Tan et al. [2017]; cited from earlier work.
Data set [7] has as its system urease of Helicobacter pylori. More on the design: method as in Li et al. [2016]. The note with it: ref Li et al. [2016]; cited from earlier work.
The test system of another data set is Helicobacter pylori. More on the design: method as in Li et al. [2018]. Conditions: antibacterial study and urease activity in vivo; ref Li et al. [2018]; cited from earlier work.
The conditions of data set [8]: acute toxicity; ref Yi et al. [2013]; cited from earlier work.
The test system of data set [9] is rumen microbial urease (rumen fluid). The data set can be described thus: Ruminal microbial fermentation in vitro (NH3 and urea). Type of data set: cell-based, rumen microorganisms. Conditions: 15 mM urea; for Decrease in NH3 concentration: 12 h of incubation. How it is done: The study of ruminal microbial fermentation consisted of a control group and 3 epiberberine treatment groups, each containing 70 mL fresh rumen fluid and 140 mL anaerobic medium (Zhang et al. [2020c]). Epiberberine treatment groups with the final concentration of 2, 20, and 200 μM were pre-incubated in an anaerobic chamber at 39 °C for 15 min. Immediately after inoculation, 10 mL aliquots of mixed solution were transferred into Hungate tubes, urea with a final concentration of 15 mM was added into each tube. Three tubes were immediately collected from each group as 0 h samples; the others were sealed with rubber stoppers and cultured in an incubator. Samples were collected at 1, 2, 4, 8, and 12 h of incubation, with 3 tubes in each group. The collected tubes were immediately placed on ice to slow down fermentation; 400 μL of sample solution was mixed with 800 μL metaphosphoric acid solution (25% w/v) and centrifuged at 12,000 × g for 5 min. The supernatant was collected for the detection of NH3 and urea. NH3 content was measured by a modified phenol/hypochlorite reaction method. Urea concentration was determined using the diacetyl monoxime method kit following the manufacturer’s instructions (Jiancheng Bioengineering, Nanjing, China).

For data set [10] the following is noted: rat, in vivo, po; cited from earlier work.

Sequence of (UniProt A0A6M3RDS9) (A0A6M3RDS9 1-203): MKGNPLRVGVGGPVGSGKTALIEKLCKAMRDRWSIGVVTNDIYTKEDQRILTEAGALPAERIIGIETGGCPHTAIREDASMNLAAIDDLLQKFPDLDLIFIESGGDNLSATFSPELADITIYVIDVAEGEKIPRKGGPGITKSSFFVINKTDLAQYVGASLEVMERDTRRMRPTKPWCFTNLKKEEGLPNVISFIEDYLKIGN

As to `CC(=O)NO` [AHA, acetohydroxamic acid, reference compound], the “Inhibition rate of UreG GTPase activity” value in the data set on UreG [1] (Fig. 1A screening) is reported as “little effect”. The “Inhibition rate of urease activity against ruminal microbial crude protein” value in data set [2] came to 40%.
The IC50 is the concentration that gives 50% inhibition. Regarding `c1c2c(cc3c1OCO3)-c1cc3ccc4c(c3c[n+]1CC2)OCO4` [Coptisine chloride], the IC50 on UreG [1] is 86.6 µM. In addition, in the data set with UreG [1] (ratio of inhibition rates), the “Inhibition rate of UreG GTPase activity relative to coptisine” value worked out at 2.5 times.
Turning to `COc1cc2c(cc1O)CC[n+]1cc3c(OC)c(OC)ccc3cc1-2` [Jatrorrizine chloride], the IC50 on UreG [1] came to 60.1 µM.
Consider `COc1cc2c(cc1OC)-c1cc3ccc(OC)c(OC)c3c[n+]1CC2` [Palmatine chloride], for which, on (UniProt A0A6M3RDS9), the IC50 was 94.8 µM.
For `COc1ccc2cc3[n+](cc2c1OC)CCc1cc2c(cc1-3)OCO2` [berberine chloride], the “Secondary structural content changes of UreG” value in the data set on UreG [3] was “slight changes”. Also, the IC50 on (UniProt A0A6M3RDS9) amounted to 43.2 µM. The “Type of inhibition of UreG” value in the data set on UreG [4] was “mixed-type inhibitor”. Besides, on UreG [5], the “Effect on KD value between nickel and UreG” value was “slightly altered”; the “Effect on N value (nickel: UreG)” value is on record as “slightly altered”.
Turning to `COc1ccc2cc3[n+](cc2c1OC)CCc1cc2c(cc1-3)OCO2` [berberine], in [6] (rats, ref Chen et al. [2017]), the Oral bioavailability is recorded as under 1%. For the same compound, in the data set with urease, the “Inhibitory potential against urease based on IC50 (rank among 5 alkaloids)” value was “weakest one among the 5 alkaloids”. Moreover, in data set [7], the “Inhibitory activity against urease of Helicobacter pylori” value is “little inhibitory activity”.
For the compound `c1c2c(cc3c1OCO3)-c1cc3ccc4c(c3c[n+]1CC2)OCO4` [coptisine], in the data set with Helicobacter pylori, the “Inhibitory effect on Helicobacter pylori among the 5 major protoberberine alkaloids” value was “strongest inhibitory effect”.
For the compound `COc1cc2c(cc1OC)-c1cc3ccc4c(c3c[n+]1CC2)OCO4` [epiberberine], the Median lethal dose in data set [8] was 1360.0 mg/kg. In addition, the “Urea remaining during fermentation” value in [9] (2 μM, after 8 h of incubation) is listed as “completely decomposed”. Besides, in data set [9] (20 μM), the “Decrease in NH3 concentration” value is 13.1%. Besides, in data set [9] (200 μM), the “Decrease in NH3 concentration” value is listed as 15.6%. Also, in data set [6] (rat, in vivo, po), the Oral bioavailability was 14.5%. For the same compound, the “Inhibitory potential against urease based on IC50 (rank among 5 alkaloids)” value with urease is given as “lowest IC50 value”. Moreover, in data set [10], the “Detection in urine, feces and bile” value is reported as “not detected”. In the data set with UreG [3], the “Decrease in the α-helix content of UreG” value is recorded as ~ 56% and the “Increasement in the β-sheet content of UreG” value is recorded as ~ 105%. For the same compound, at (UniProt A0A6M3RDS9), the IC50 was 56.9 µM. Moreover, the “Type of inhibition of UreG” value in the data set on UreG [4] was “uncompetitive inhibition type”. The “Inhibition rate of urease activity against ruminal microbial crude protein” value in data set [2] is “significantly higher than that of berberine chloride and AHA”. In addition, on UreG [5], the “Effect on KD value between nickel and UreG” value was “increased”; the “Effect on N value (nickel: UreG)” value is “decreased”. In addition, the “Weaker binding of nickel and UreG compared to that of berberine chloride” value in the data set with UreG [5] (238 μM alkaloid) came out at 10.8 fold.
Consider `COc1cc2c(cc1OC)-c1cc3ccc(OC)c(OC)c3c[n+]1CC2` [palmatine], for which the Median lethal dose in data set [8] is reported as 1533.7 mg/kg.
